Measurements taken from patent US20250382619A1, “CANCER THERAPY WITH TGF-BETA-2 AND IRINOTECAN AGENTS” (GMP BIOTECHNOLOGY LIMITED, priority 2023, published 2025).
Values joined by “and” are separate entries in the source; they are usually repeats but may differ in a detail not shown here. Equal values may be shown once. In the oligonucleotide strings, read from the 5' end, every base follows the letter of its sugar. An asterisk marks phosphorothioate; unmarked linkages are phosphodiester. Other units and linkages are bracketed, terminal groups are in braces. A string of capitals states the bases alone. d = 2'-deoxy (DNA)

Tests used:
pancreatic cancer [1] = assay: Clinical study of overall survival, pancreatic cancer patients treated with irinotecan, by TGF-β2 expression (Example 5, two cohorts); type: in vivo, human; conditions: for Improvement in overall survival (OS) with reduced TGF-β2 expression in patients treated with the agent: pancreatic cancer patients selected by treatment; for Synergy in combination with reduced TGF-β2 expression: overall survival, pancreatic cancer patients; for Median Months Overall (95% CI): irinotecan-treated patients
Text: The study of FIG. 5 used Quartiles of TGFB2 from mRNA expression z-scores relative to all samples (log RNA Seq V2 RSEM).

pancreatic cancer [2] = assay: Clinical study of overall survival, pancreatic cancer patients treated with irinotecan, by TGF-β2 expression quartiles (Example 6); type: in vivo, human; conditions: TGFB2 quartile (D) 0.61-2.64, high TGF-β2 expression
Method: Kaplan-Meier Plotter was used to calculate patient survival to determine the connection between improved overall survival in pancreatic cancer and reduced TGF-β2 expression when patients were also treated with irinotecan. The study of FIG. 6 used Quartiles of TGFB2 from mRNA expression z-scores relative to all samples (log RNA Seq V2 RSEM).

Molecule | Improvement in overall survival (OS) with reduced TGF-β2 expression in patients treated with the agent (pancreatic cancer [1]) | Synergy in combination with reduced TGF-β2 expression (pancreatic cancer [1]) | also measured
Trabedersen: synthetic 18-mer phosphorothioate oligodeoxynucleotide complementary to human TGF-β2 mRNA, CGGCATGTCT ATTTTGTA (antisense dC*dG*dG*dC*dA*dT*dG*dT*dC*dT*dA*dT*dT*dT*dT*dG*dT*dA) |  |  | pH of solution: 6-8
Nc1ccn([C@@H]2O[C@H](CO)[C@@H](O)C2(F)F)c(=O)n1 [gemcitabine] | not observed |  | 
Nc1nc2c(c(=O)[nH]1)N(C=O)C(CNc1ccc(C(=O)N[C@@H](CCC(=O)O)C(=O)O)cc1)CN2 (some centres unmarked) [leucovorin] | not observed | none of oxaliplatin, leucovorin, and fluorouracil showed significant synergy | 
O=C1[O][Pt]2([NH][C@@H]3CCCC[C@H]3[NH]2)[O]C1=O [oxaliplatin] | not observed |  | 
O=c1[nH]cc(F)c(=O)[nH]1 [fluorouracil] | not observed | none of oxaliplatin, leucovorin, and fluorouracil showed significant synergy | 
CCc1c2c(nc3ccc(OC(=O)N4CCC(N5CCCCC5)CC4)cc13)-c1cc3c(c(=O)n1C2)COC(=O)[C@]3(O)CC [irinotecan] | showed improvement in overall survival |  | Median Months Overall (95% CI) (pancreatic cancer [1]; TGFB2 cohort (A) −1.75-0.17, low TGF-β2 expression): >>34 months; Median Months Overall (95% CI) (pancreatic cancer [1]; TGFB2 cohort (B) 0.33-2.64, high TGF-β2 expression): 23 months and 23.08 (8.22-NA) months; Median Months Overall (95% CI) (pancreatic cancer [2]): 8 months and 8.22 (6.02-NA) months
